# Results published in patent US20230011398A1, “COMBINATION THERAPY APPROACH TO ELIMINATE HIV INFECTIONS” (priority 2019, published 2023).
# Assays:
# [1] = tested on: HIV-1-infected cells and uninfected bystander T cells; assay: Mixed culture of HIV-1-infected and CellTrace Violet-labeled uninfected T cells; settings: alone or together, 0.2 μM BMS-626529 present, 48 h
# Method: To determine the specificity in the killing of HIV-1 infected cells, uninfected CD4 cells were labeled with CellTrace Violet dye (ThermoFisher Scientific) and mixed with HIV-1-infected cells at the ratio of 1:1. The cells were resuspended in RIPMI complete medium containing 0.2 μM BMS-626529, with 0.1 μM IDB, 0.2 μM ABT-263 and 2 μM SAR405 as indicated for 48 h. The cells were incubated with 1 μM FITC-DEVD-FMK, followed by staining with APC-Annexin and analyses by flow cytometry.
# [2] = tested on: PBMCs from HIV-1-infected patients; assay: In vitro treatment of PBMCs from HIV-1-infected patients, HIV-1 mRNA by RT-PCR; format: cell-based, human; settings: outpatients undergoing ART, no active virus production
# Method: Quantification of HIV-1 mRNA and DNA. HIV-1 mRNA was measured by RT-PCR similar to the described protocols. LTR-GAG was amplified with forward primer (LTR-GAG-AF), 5′-[…]-3′ (SEQ. ID NO. 9) and reverse primer (LTR-GAG-AR), 5′-[…] […]-3′ (SEQ. ID NO. 10), and detected with the LTR-GAG probe, SHEX/[…]/ZEN /[…]/3IABkFQ (SEQ. ID NO. 11). HIV-1 pol-1 was amplified with POL-1 forward primer (POL-1-AF), 5′-[…]-3′ (SEQ. ID NO. 12) and reverse primer (POL-1-AR), 5′-[…]-3′ (SEQ. ID NO. 13), and detected with the pol-1 probe FAM/[…]/ZEN/[…]/3IABKFQ (SEQ. ID NO. 14) in iTaq Universal Probes Supermix (Bio-Rad). The reaction was carried out by iTaq Universal Probes Supermix (Bio-Rad) with a QuantStudio 5 Real-Time PCR System and analyzed with the QuantStudio Design and Analysis Software (Applied Biosystem). Cycle threshold (Ct) values were calibrated using standard curve generated with the standard samples with known amounts of viral copies.
# Treatment of PBMCs from HIV-1-infected patients. PBMCs from HIV-1 patients were resuspended in RPMI complete medium containing and 0.3 ng/ml IL-2 and 50 ng/ml M-CSF and cultured with 0.2 μM BMS-626529, 0.2 μM raltegravir, 25 nM IDB, 20 nM ABT-263, 0.1 μM SAR405 and 0.25 μM JQ1 for 2 days as one cycle of treatments. The cells were then washed and cultures in the same medium for next cycle of culture. […]
smiles,measurement,setting,value
"CC1=C[C@]23C(=O)[C@@H](C=C(COC(=O)c4ccccc4)[C@@H](O)[C@]2(O)[C@H]1OC(=O)c1ccccc1)[C@H]1[C@@H](C[C@H]3C)C1(C)C [IDB, ingenol 3,20-dibenzoate]",killing of HIV-1-infected cells in mixed culture,[1],killed HIV-1-infected cells
same,killing of uninfected bystander cells in mixed culture,[1],resistant
same,HIV-1 detection in PBMCs after stimulation with IDB,[2],could be detected
